In PMC6934184, “Selective DNA-PKcs inhibition extends the therapeutic index of localized radiotherapy and chemotherapy” (The Journal of Clinical Investigation, 2019):

Target: T1, KDR (VEGFR2) (Homo sapiens, UniProt P35968)
T1 construct: purchased Thermo Fisher Scientific (Life Technologies) SelectScreen
Assay: SelectScreen Z'LYTE
Assay type: biochemical
Summary of the method: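 Percent values come from Thermo SelectScreen profiling of NU5455, combining activity and binding assays. CSF1R was run in Z'LYTE format at Km app ATP, and CAMK1 in Adapta format with ATP listed at 10.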

T1 sequence (P35968 20-1356): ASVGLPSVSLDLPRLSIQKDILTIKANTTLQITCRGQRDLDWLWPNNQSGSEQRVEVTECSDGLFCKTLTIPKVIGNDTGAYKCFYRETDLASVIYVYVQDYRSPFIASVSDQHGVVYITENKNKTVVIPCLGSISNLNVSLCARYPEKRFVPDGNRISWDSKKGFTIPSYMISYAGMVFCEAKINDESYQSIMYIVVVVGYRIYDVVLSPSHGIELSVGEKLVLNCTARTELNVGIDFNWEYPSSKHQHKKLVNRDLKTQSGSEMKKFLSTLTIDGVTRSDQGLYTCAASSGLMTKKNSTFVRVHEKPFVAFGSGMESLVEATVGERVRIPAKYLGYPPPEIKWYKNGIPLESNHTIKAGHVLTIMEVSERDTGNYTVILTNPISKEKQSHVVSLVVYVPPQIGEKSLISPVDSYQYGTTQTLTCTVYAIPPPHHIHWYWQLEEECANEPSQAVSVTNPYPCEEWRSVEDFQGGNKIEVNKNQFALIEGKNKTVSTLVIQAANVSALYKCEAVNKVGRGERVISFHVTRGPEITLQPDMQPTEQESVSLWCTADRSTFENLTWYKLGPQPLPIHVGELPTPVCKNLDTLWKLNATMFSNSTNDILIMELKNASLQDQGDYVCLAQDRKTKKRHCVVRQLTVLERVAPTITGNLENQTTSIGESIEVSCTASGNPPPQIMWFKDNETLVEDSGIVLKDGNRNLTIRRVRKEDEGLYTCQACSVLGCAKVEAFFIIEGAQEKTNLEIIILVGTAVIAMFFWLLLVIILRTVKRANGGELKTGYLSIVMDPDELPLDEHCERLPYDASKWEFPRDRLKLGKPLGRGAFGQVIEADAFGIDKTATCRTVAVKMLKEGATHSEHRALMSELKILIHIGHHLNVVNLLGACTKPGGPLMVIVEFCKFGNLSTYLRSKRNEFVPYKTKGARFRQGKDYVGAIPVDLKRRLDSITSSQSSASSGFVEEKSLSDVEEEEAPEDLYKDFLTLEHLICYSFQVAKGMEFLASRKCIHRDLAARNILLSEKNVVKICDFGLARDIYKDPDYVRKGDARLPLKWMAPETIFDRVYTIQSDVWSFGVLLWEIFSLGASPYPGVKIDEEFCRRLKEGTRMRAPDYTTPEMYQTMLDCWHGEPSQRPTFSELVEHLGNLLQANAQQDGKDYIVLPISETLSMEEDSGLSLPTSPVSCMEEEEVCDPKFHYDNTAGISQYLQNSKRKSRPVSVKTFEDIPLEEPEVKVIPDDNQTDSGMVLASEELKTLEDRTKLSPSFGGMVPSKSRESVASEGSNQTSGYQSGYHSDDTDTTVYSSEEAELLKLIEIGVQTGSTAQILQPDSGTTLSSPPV

CN(C(=O)CN1CCOCC1)c1ccc2sc3c(-c4cccc5c(=O)cc(N6CC7CCC(C6)O7)oc45)cccc3c2c1 [NU5455]
inhibition at 1 µM: 1.8%
